In ChEMBL document CHEMBL5725882, “Imide and acylurea derivatives as modulators of the glucocorticoid receptor” (2017):

Molecular target: T1, Glucocorticoid receptor (Homo sapiens, UniProt P04150)
T1 sequence (P04150 whole entry): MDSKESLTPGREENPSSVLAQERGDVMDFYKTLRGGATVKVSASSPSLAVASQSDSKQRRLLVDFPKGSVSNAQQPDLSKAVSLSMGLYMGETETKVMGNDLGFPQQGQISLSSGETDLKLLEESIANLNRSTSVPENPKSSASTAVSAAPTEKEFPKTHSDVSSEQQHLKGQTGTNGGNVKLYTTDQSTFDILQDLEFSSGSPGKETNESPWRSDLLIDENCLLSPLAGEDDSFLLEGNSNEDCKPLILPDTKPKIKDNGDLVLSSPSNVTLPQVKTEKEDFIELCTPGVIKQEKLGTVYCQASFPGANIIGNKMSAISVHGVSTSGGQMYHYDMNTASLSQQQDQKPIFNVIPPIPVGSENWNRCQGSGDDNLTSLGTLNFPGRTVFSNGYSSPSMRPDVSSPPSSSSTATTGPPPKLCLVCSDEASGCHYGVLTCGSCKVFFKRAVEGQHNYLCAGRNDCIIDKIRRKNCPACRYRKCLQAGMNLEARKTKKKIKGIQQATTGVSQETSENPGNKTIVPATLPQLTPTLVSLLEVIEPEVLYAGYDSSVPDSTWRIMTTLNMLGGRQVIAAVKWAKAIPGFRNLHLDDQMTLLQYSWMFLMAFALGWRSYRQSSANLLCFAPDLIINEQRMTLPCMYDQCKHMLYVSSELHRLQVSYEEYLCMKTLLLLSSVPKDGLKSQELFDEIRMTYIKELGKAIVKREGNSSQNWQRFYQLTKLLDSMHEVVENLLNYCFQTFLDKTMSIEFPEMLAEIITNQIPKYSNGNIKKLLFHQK
Test: Briefly, purified human recombinant full-length glucocorticoid receptor (2 nM) was mixed with fluorescently labeled glucocorticoid (1 nM Fluormone GS Red) in the presence or absence of test compound. After two hour incubation at room temperature in the dark, the fluorescence polarization (FP) of the samples was measured. […] Test compounds were analyzed in the concentration range from 8.5E-05 μM to 5 μM. Binding Assay (II):In order to measure the binding of compounds on the glucocorticoid receptor a commercially available kit was used (Glucocorticoid receptor competitor assay kit, PanVera Co., Madison, Wis., P2816). Briefly, a cell lysate containing recombinantly expressed human full-length glucocorticoid receptor was mixed with a fluorescently labeled glucocorticoid (1 nM Fluormone GS1) in the presence or absence of test compound. After one hour at room temperature, the fluorescence polarization (FP) of the samples were measured. […] An appropriate cell lysate or purified NHR is used as the source of the NHR. The fluorescent probe and unlabeled competitor are appropriate for the specific NHR, i.e., are ligands for the specific NHR.

SMILES	Ki
CC(=O)NC(=O)C(C)(C)[C@@H]1c2ccc(-c3ccc(C(=O)N(C)C)cc3)nc2Oc2c(F)cccc21	93.5 nM
CNC(=O)NC(=O)C(C)(C)[C@@H]1c2ccc(-c3ccc(C(C)(C)O)cc3)nc2Oc2c(F)cccc21	1.42 nM
COc1ccc2c(c1)Oc1ccccc1[C@@H]2C(C)(C)C(=O)NC(N)=O	8.57 nM
CC(C)(O)c1ccc(-c2ccc3c(n2)Oc2c(F)cccc2[C@@H]3C(C)(C)C(=O)NC(N)=O)cc1	0.32 nM
CC(C)(C(=O)NC(N)=O)[C@@H]1c2ccc(-c3ccc(C(=O)N4CCC4)cc3)nc2Oc2c(F)cccc21	0.93 nM
CC(C)(C(=O)NC(=O)NCCO)[C@@H]1c2ccc(-c3ccc(C(=O)N4CCOCC4)cc3)nc2Oc2c(F)cccc21	61.7 nM
CC(C)NC(=O)NC(=O)C(C)(C)[C@@H]1c2ccc(-c3ccc(C(=O)N4CCOCC4)cc3)nc2Oc2c(F)cccc21	32.4 nM
CC(C)S(=O)(=O)c1ccc(-c2ccc3c(n2)Oc2ccccc2[C@@H]3C(C)(C)C(=O)NC(N)=O)cc1	0.58 nM
CC(C)(O)CNC(=O)NC(=O)C(C)(C)[C@@H]1c2ccc(-c3ccc(C(C)(C)O)cc3)nc2Oc2c(F)cccc21	20.8 nM

The next lines start with the values.

Ki	SMILES
1.81 nM	CC(C)(C(=O)NC(N)=O)[C@H]1c2ccccc2Oc2nc(-c3ccc(C(=O)N4CCOCC4)cc3)ccc21
7.01 nM	CC(=O)NC(=O)C(C)(C)[C@H]1c2ccccc2Oc2nc(-c3ccc(C(=O)N4CCOCC4)cc3)ccc21
5.28 nM	COC(=O)NC(=O)C(C)(C)[C@@H]1c2ccc(-c3ccc(C(=O)OC)cc3)nc2Oc2c(F)cccc21
25.1 nM	CC(C)(O)c1ccc(-c2ccc3c(n2)Oc2c(F)cccc2[C@@H]3C(C)(C)C(=O)NC(=O)NCCO)cc1
87.1 nM	CC(C)(O)CNC(=O)NC(=O)C(C)(C)[C@@H]1c2ccc(-c3ccc(C(=O)N4CCOCC4)cc3)nc2Oc2c(F)cccc21
37.5 nM	CNC(=O)NC(=O)C(C)(C)[C@@H]1c2ccc(Cl)nc2Oc2c(F)cccc21
66.5 nM	CCC(=O)NC(=O)C(C)(C)[C@@H]1c2ccc(-c3ccc(C(=O)N4CCOCC4)cc3)nc2Oc2c(F)cccc21
171 nM	CC(C)(C(=O)NC(=O)N1CCOCC1)[C@@H]1c2ccc(-c3ccc(C(=O)N4CCOCC4)cc3)nc2Oc2c(F)cccc21
